According to ChEMBL document CHEMBL5352398 (Eur J Med Chem, 2022):
pIC50: −log10 of the molar value. Active and inactive are the calls of the source. The rule behind the calls is not given here.

Key:
[1] = Renal toxicity in Kunming mouse assessed as effect on creatinine level at 50 mg/kg,po for 14 days; assay type: organism-based; settings: in vivo, 336 h, time 14 day
Mus musculus = assay: Anti-hyperuricemic activity against potassium oxonate induced hyperuricemia in Kunming mouse model assessed as decrease in serum urate level at 2 mg/kg, po and measured after 3 hrs; assay type: functional, organism-based
[2] = Renal toxicity in Kunming mouse assessed as effect on BUN level at 50 mg/kg,po for 14 days; assay type: organism-based; settings: in vivo, 336 h, time 14 day
[3] = MRT (0 to infinity) in Sprague-Dawley rat at 5 mg/kg, po and measured upto 24 hrs by LC-MS/MS analysis; assay type: ADME, organism-based; settings: in vivo
[4] = AUC(0 to infinity) in Sprague-Dawley rat at 5 mg/kg, iv and measured upto 24 hrs by LC-MS/MS analysis; assay type: ADME, organism-based; set-up: dose 5 mg/kg, time < 24 hrs, route iv; settings: in vivo
[5] = target: T1, Solute carrier family 2, facilitated glucose transporter member 9 (Mus musculus) (UniProt Q3T9X0); assay: Inhibition of mouse GLUT9 transfected in human HEK293 cells assessed as inhibition of uric acid induced current at 10 uM by cell patch-clamp assay; assay type: cell-based
T1 sequence (whole entry): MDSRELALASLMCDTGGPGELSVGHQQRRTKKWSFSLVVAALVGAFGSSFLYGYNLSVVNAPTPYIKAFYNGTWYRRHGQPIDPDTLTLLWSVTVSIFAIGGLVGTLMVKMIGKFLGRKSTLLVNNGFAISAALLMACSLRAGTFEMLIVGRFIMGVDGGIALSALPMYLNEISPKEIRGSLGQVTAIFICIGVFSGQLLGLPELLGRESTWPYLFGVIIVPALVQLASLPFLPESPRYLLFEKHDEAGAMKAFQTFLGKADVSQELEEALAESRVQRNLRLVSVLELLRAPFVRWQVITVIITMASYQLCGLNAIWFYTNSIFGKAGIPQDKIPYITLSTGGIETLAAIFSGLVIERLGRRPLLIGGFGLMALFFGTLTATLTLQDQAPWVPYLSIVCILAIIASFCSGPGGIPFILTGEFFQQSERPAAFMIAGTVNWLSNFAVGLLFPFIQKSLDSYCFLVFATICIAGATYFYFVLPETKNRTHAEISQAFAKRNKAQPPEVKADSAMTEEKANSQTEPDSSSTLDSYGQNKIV

[6] = Subacute toxicity in Kunming mouse assessed as body weight change at 50 mg/kg,po for 14 days; assay type: organism-based; settings: in vivo, 336 h, time 14 day
[7] = Subacute toxicity in Kunming mouse assessed as anorexia at 50 mg/kg,po for 14 days; assay type: organism-based; settings: in vivo, 336 h, time 14 day
[8] = Toxicity in Kunming mouse assessed as dilated vacuolization in liver at 50 mg/kg, po and measured after 14 days by HE staining based microscopy; assay type: organism-based; settings: in vivo, 336 h, time 14 day
[9] = target: T2, Solute carrier family 22 member 6 (Homo sapiens, UniProt Q4U2R8); assay: Inhibition of OAT1 (unknown origin) transfected in HEK293 cells assessed as inhibition of 6-CFL uptake preincubated for 30 mins followed by 6-CFL addition and measured for 15 mins by fluorescence based microplate reader analysis; assay type: cell-based
T2 sequence (Q4U2R8 whole entry): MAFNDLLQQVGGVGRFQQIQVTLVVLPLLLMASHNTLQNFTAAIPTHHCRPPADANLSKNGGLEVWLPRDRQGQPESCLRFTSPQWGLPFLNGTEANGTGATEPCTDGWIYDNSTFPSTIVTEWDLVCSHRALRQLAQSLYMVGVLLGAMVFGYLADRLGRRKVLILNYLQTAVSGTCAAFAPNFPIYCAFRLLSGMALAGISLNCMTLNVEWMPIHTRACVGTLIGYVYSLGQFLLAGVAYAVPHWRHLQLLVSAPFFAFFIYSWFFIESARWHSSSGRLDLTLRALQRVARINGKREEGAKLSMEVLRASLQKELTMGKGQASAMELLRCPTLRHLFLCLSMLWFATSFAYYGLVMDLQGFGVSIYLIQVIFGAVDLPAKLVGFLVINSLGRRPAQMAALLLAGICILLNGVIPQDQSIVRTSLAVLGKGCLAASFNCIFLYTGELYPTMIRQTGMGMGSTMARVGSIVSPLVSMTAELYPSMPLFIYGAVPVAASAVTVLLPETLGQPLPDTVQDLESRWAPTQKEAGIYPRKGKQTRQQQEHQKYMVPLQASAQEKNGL

[10] = Hepatotoxicity in Kunming mouse assessed as reduction in serum GSH level at 50 mg/kg, ip and incubated for 1 hr relative to control; assay type: toxicity, organism-based; set-up: scale not given: the % may be the effect or the level left; settings: in vivo
HepG2 [11] = assay: Cytotoxicity against human HepG2 cells assessed as reduction in cell viability at 100 uM incubated for 72 hrs by MTT assay; assay type: toxicity, cell-based; settings: hepg2, 72 h
[12] = target: T3, Broad substrate specificity ATP-binding cassette transporter ABCG2 (Homo sapiens, UniProt Q9UNQ0); assay: Inhibition of ABCG2 (unknown origin) transfected in HEK293 cell membrane vesicle assessed as inhibition of 14C-uric acid uptake incubated for 15 mins in presence of ATP by liquid scintillation counter analysis; assay type: cell membranes
T3 sequence (Q9UNQ0 whole entry): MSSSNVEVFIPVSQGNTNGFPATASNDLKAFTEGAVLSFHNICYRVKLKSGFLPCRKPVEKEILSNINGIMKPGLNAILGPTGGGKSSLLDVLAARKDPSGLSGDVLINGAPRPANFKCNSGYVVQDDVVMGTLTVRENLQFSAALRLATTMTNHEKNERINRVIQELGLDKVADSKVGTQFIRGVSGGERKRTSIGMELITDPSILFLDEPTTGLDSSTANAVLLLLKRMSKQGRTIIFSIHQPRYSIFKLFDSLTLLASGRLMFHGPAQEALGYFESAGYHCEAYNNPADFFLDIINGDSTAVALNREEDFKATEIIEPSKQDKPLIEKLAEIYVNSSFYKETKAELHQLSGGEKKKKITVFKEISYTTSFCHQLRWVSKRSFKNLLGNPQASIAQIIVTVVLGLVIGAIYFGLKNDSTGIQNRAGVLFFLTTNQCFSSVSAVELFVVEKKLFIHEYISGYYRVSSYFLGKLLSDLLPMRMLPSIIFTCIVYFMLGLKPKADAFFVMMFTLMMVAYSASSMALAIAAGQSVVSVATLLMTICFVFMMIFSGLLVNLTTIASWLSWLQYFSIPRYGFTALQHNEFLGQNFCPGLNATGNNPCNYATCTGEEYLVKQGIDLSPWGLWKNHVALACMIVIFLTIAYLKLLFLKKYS

[13] = Subacute toxicity in Kunming mouse assessed as lethargy at 50 mg/kg,po for 14 days; assay type: organism-based; settings: in vivo, 336 h, time 14 day
[14] = Hepatotoxicity in Kunming mouse assessed as reduction in GSH level in serum at 50 mg/kg, ip and incubated for 1 hr (reference value: 41.68 uM); assay type: toxicity, organism-based; settings: in vivo
[15] = Toxicity in Kunming mouse assessed as appearance of normal glomerulus cells in kidney at 50 mg/kg, po administered and measured after 14 days by HE staining; assay type: organism-based; settings: in vivo, 336 h, time 14 day
[16] = Toxicity in Kunming mouse assessed as steatosis in liver at 50 mg/kg, po and measured after 14 days by HE staining based microscopy; assay type: organism-based; settings: in vivo, 336 h, time 14 day
[17] = Cmax in Sprague-Dawley rat at 5 mg/kg, iv and measured upto 24 hrs by LC-MS/MS analysis; assay type: ADME, organism-based; set-up: time < 24 hrs, dose 5 mg/kg, route iv; settings: in vivo
HepG2 [18] = assay: Cytotoxicity against human HepG2 cells assessed as reduction in cell viability upto 400 uM incubated for 24 hrs by MTT assay; assay type: toxicity, cell-based; settings: hepg2, 24 h

Structure (SMILES): CCc1oc2ccccc2c1C(=O)c1cc(Br)c(O)c(Br)c1 [BENZBROMARONE]
- Activity [1]: Non-Toxic
- Activity (Mus musculus): Active
- Activity [2]: Non-Toxic
- MRT inf [3]: 3.48 h
- AUC(0-inf) [4]: 30700 ng·h/mL
- inhibition [5]: 26%
- Activity [6]: Non-Toxic
- Activity [7]: Non-Toxic
- Activity [8]: Toxic
- pIC50 [9]: 5.67
- Activity [10]: 74.29%
- Activity (HepG2 [11]): Toxic
- pIC50 [12]: 6.47
- Activity [13]: Non-Toxic
- Activity [14]: 10.72 µM
- Activity [15]: Non-Toxic
- Activity [16]: Non-Toxic
- Cmax [17]: 14700 ng/mL
- Activity (HepG2 [18]): Toxic
